# Measurements: patent US20040009511A1, “Identification of compounds which stimulate bone formation using a cell-based screening assay targeting BMP signaling” (priority 2002, published 2004)
# B1: noggin: BMP binding protein noggin (protein, UniProt Q13253 28-232, looked up)
# Noggin: QHYLHIRPAPSDNLPLVDLIEHPDPIFDPKEKDLNETLLRSLLGGHYDPGFMATSPPEDRPGGGGGAAGGAEDLAELDQLLRQRPSGAMPSEIKGLEFSEGLAQGKKQRLSKKLRRKLQMWLWSQTFCPVLYAWNDLGSRFWPRYVKVGSCFSKRSCSVPEGMVCKPSKSVHLTVLRWRCQRRGGQRCGWIPIQYPIISECKCSC
# B2: PTH: Parathyroid Hormone (protein, UniProt P01270 32-115, looked up)
# Parathyroid hormone: SVSEIQLMHNLGKHLNSMERVEWLRKKLQDVHNFVALGAPLAPRDAGSQRPRKKEDNVLVESHEKSLGEADKADVNVLTKAKSQ
# modifications: Parathyroid hormone
# Legend:
# Format in all cases: cell-based
# [1] = system: 9×SBE-6×OSE2-OC-luc reporter construct in 2T3 C-17 cells; assay: Luciferase assay, 9×SBE-6×OSE2-OC-luc reporter stably transfected in 2T3 clone C-17; parameters: Luciferase Activity: unit not given here; settings: for Luciferase Activity / Luciferase Activity (fold increase) / Effect on luciferase activity of the reporter construct / Luciferase Activity, value in parentheses (fold increase): 24 hours; for Maximal effect, fold increase in luciferase activity: over the concentrations tested
# Procedure: (§1) An oligonucleotide containing 9 copies of Smad1 response element (9×SBE) and 6 copies of Cbfa1 response element (6×OSE2) was synthesized in the DNA laboratory at University of Texas Health Science Center at San Antonio. The osteocalcin basal promoter (OC, −155/+1) was amplified by Polymerase Chain Reaction (PCR) using mouse genomic DNA as a template and cloned into pGL3 vector. An 9×SBE-6×OSE2 oligonucleotide was cloned upstream of osteocalcin basal promoter.
# (§2) C2C12 and 2T3 cells were plated in 6-well culture plates at densities of 4×10^5 and 2×10^5 cells/well and cultured with DMEM or α minimal essential medium (α MEM) supplemented with 10% FCS for 24 hours. A 9×SBE-6×OSE2-OC-luc-reporter construct (2 μg/well) was co-transfected with pcDNA3 empty vector (0.2 mg/well) in C2C12 and 2T3 cells using lipofactamine plus reagents (Gibco/BRL). Forty eight hours later, G418 (200 μg/ml) was added to the culture plates. Four weeks after G418 selection, the G418 resistant cells were plated in 96-well plates at the density of 1 cell/well and cloned by limiting dilution method.
# (§3) C2C12 and 2T3 cells, in which 9×SBE-6×OSE2-OC-luc-reporter construct was stably transfected, were plated in 96-well culture plates at densities of 1×10^4 and 0.5×10^4 cells/well and cultured for 24 hours. The medium was changed to fresh medium supplemented with 2% FCS and different growth factors or hormone were added to culture medium for 24 hours or different compounds were added to culture medium for 2, 6, 12, 24 and 48 hours. The cell lysates were extracted and luciferase activities were determined by luciferase assay kit (Promega, Madison, Wis.) using a Luminometer.
# (§4) At the end of the incubation, the cell lysates were extracted using lysis buffer and luciferase activities were measured using a luciferase assay kit (Promega).
# [2] = system: 9×SBE-6×OSE2-OC-luc reporter construct in C2C12 C-10-62 cells; assay: Luciferase assay, 9×SBE-6×OSE2-OC-luc reporter stably transfected in C2C12 clone C-10-62; settings: for Maximal effect, fold increase in luciferase activity: over the concentrations tested; for Effect on luciferase activity of the reporter construct: 24 hours
# Procedure: as §1, §2, §3, §4
# [3] = system: 9×SBE-6×OSE2-OC-luc reporter construct; assay: Luciferase assay, 9×SBE-6×OSE2-OC-luc reporter construct, cells not specified
# From the text: as §1, §3
# Further, a reporter construct which contains multiple copies of both Smad1 (SBE) and Cbfa1 (OSE2) response elements (9×SBE-6×OSE2-OC-luc) was made.
# [4] = 2-ME 1.25 μM, 2T3 cell clone 17
# [5] = 9-cis RA 1.25 μM, 2T3 cell clone 17
# [6] = 9-cis RA 2.5 μM, 2T3 cell clone 17
# [7] = 9-cis RA 5 μM, 2T3 cell clone 17
# [8] = 9-cis RA 10 μM, 2T3 cell clone 17
# [9] = All-trans RA 1.25 μM, 2T3 cell clone 17
# [10] = All-trans RA 2.5 μM, 2T3 cell clone 17
# [11] = All-trans RA 5 μM, 2T3 cell clone 17
# [12] = All-trans RA 10 μM, 2T3 cell clone 17
# [13] = TN-16 0.039 μM, 2T3 cell clone 17
# [14] = TN-16 0.078 μM, 2T3 cell clone 17
# [15] = TN-16 0.156 μM, 2T3 cell clone 17
# [16] = TN-16 0.3125 μM, 2T3 cell clone 17
# [17] = TN-16 0.625 μM, 2T3 cell clone 17
# [18] = TN-16 1.25 μM, 2T3 cell clone 17
# [19] = TN-16 2.5 μM, 2T3 cell clone 17
molecule,measurement,setting,value
"COc1cc2c(cc1O)CC[C@@H]1[C@@H]2CC[C@]2(C)[C@@H](O)CC[C@@H]12 [2-ME, 2-methoxyestradiol, reference compound]",Luciferase Activity,"[1]; 2-ME 0.625 μM, 2T3 cell clone 17",0.052
same,Luciferase Activity,[1]; [4],0.059
same,Luciferase Activity (fold increase),[1]; [4],1.2 fold
same,Luciferase Activity,"[1]; 2-ME 2.5 μM, 2T3 cell clone 17",0.065
same,Luciferase Activity (fold increase),"[1]; 2-ME 2.5 μM, 2T3 cell clone 17",1.3 fold
same,Luciferase Activity,"[1]; 2-ME 5 μM, 2T3 cell clone 17",0.102
same,Luciferase Activity (fold increase),"[1]; 2-ME 5 μM, 2T3 cell clone 17",2.0 fold
same,Luciferase Activity,"[1]; 2-ME 10 μM, 2T3 cell clone 17",0.130
same,Luciferase Activity (fold increase),"[1]; 2-ME 10 μM, 2T3 cell clone 17",2.6 fold
same,Effect on luciferase activity of the reporter construct,[1]; 2T3 C-17 cells,stimulated the reporter construct in a dose-dependent manner
"CC1=C(/C=C/C(C)=C\C=C\C(C)=C\C(=O)O)C(C)(C)CCC1 [9-cis RA, 9-cis retinoic acid, reference compound]","Maximal effect, fold increase in luciferase activity",[1]; 2T3 C-17 cells,5 fold
same,Luciferase Activity,[1]; [5],0.160
same,"Luciferase Activity, value in parentheses (fold increase)",[1]; [5],3.6 fold
same,Luciferase Activity,[1]; [6],0.160
same,"Luciferase Activity, value in parentheses (fold increase)",[1]; [6],3.6 fold
same,Luciferase Activity,[1]; [7],0.164
same,"Luciferase Activity, value in parentheses (fold increase)",[1]; [7],3.6 fold
same,Luciferase Activity,[1]; [8],0.226
same,"Luciferase Activity, value in parentheses (fold increase)",[1]; [8],5.0 fold
same,"Maximal effect, fold increase in luciferase activity",[2],5 fold
TGF-β,Luciferase activity normalized to protein content,[1]; 2T3 C-17 cells,no significant effect
same,"Maximal effect, fold increase in luciferase activity",[1]; 2T3 C-17 cells,3 fold
same,Luciferase Activity,"[1]; TGF-β 0.0195 ng/ml, 2T3 C-17 cells",0.046
same,Luciferase Activity,"[1]; TGF-β 0.039 ng/ml, 2T3 C-17 cells",0.052
same,Luciferase Activity,"[1]; TGF-β 0.078 ng/ml, 2T3 C-17 cells",0.053
same,Luciferase Activity,"[1]; TGF-β 0.156 ng/ml, 2T3 C-17 cells",0.062
same,Luciferase Activity,"[1]; TGF-β 0.3125 ng/ml, 2T3 C-17 cells",0.08
same,Luciferase Activity,"[1]; TGF-β 0.625 ng/ml, 2T3 C-17 cells",0.09
same,Luciferase Activity,"[1]; TGF-β 1.25 ng/ml, 2T3 C-17 cells",0.102
same,Luciferase Activity,"[1]; TGF-β 2.5 ng/ml, 2T3 C-17 cells",0.156
same,Luciferase Activity,"[1]; TGF-β 5 ng/ml, 2T3 C-17 cells",0.077
same,Luciferase Activity,"[1]; TGF-β 10 ng/ml, 2T3 C-17 cells",0.081
same,Effect on luciferase activity of the reporter construct,[2],no significant effects
acid FGF: Acidic Fibroblast Growth Factor,Luciferase Activity,"[1]; acid FGF 0.195 ng/ml, 2T3 C-17 cells",0.06
same,Luciferase Activity,"[1]; acid FGF 0.39 ng/ml, 2T3 C-17 cells",0.057
same,Luciferase Activity,"[1]; acid FGF 0.78 ng/ml, 2T3 C-17 cells",0.058
same,Luciferase Activity,"[1]; acid FGF 1.56 ng/ml, 2T3 C-17 cells",0.051
same,Luciferase Activity,"[1]; acid FGF 3.125 ng/ml, 2T3 C-17 cells",0.052
same,Luciferase Activity,"[1]; acid FGF 6.25 ng/ml, 2T3 C-17 cells",0.054
same,Luciferase Activity,"[1]; acid FGF 12.5 ng/ml, 2T3 C-17 cells",0.051
same,Luciferase Activity,"[1]; acid FGF 25 ng/ml, 2T3 C-17 cells",0.052
same,Luciferase Activity,"[1]; acid FGF 50 ng/ml, 2T3 C-17 cells",0.058
same,Luciferase Activity,"[1]; acid FGF 100 ng/ml, 2T3 C-17 cells",0.075
same,Effect on luciferase activity of the reporter construct,[2],no significant effects
"CC1=C(/C=C/C(C)=C/C=C/C(C)=C/C(=O)O)C(C)(C)CCC1 [All-trans RA, all-trans retinoic acid, reference compound]","Maximal effect, fold increase in luciferase activity",[1]; 2T3 C-17 cells,5 fold
same,Luciferase Activity,[1]; [9],0.113
same,"Luciferase Activity, value in parentheses (fold increase)",[1]; [9],2.5 fold
same,Luciferase Activity,[1]; [10],0.142
same,"Luciferase Activity, value in parentheses (fold increase)",[1]; [10],3.2 fold
same,Luciferase Activity,[1]; [11],0.164
same,"Luciferase Activity, value in parentheses (fold increase)",[1]; [11],3.6 fold
same,Luciferase Activity,[1]; [12],0.219
same,"Luciferase Activity, value in parentheses (fold increase)",[1]; [12],4.9 fold
same,"Maximal effect, fold increase in luciferase activity",[2],5 fold
"CC(Nc1ccccc1)=C1C(=O)NC(Cc2ccccc2)C1=O (centres unmarked) [TN-16, reference compound]",Effect on luciferase activity of the reporter construct,[1]; 2T3 C-17 cells,stimulated the reporter construct in a dose-dependent manner
same,"Maximal effect, fold increase in luciferase activity",[1]; 2T3 C-17 cells,5 fold
same,Luciferase Activity,[1]; [13],0.022
same,Luciferase Activity (fold increase),[1]; [13],0.9 fold
same,Luciferase Activity,[1]; [14],0.037
same,Luciferase Activity (fold increase),[1]; [14],1.6 fold
same,Luciferase Activity,[1]; [15],0.036
same,Luciferase Activity (fold increase),[1]; [15],1.6 fold
same,Luciferase Activity,[1]; [16],0.038
same,Luciferase Activity (fold increase),[1]; [16],1.6 fold
same,Luciferase Activity,[1]; [17],0.057
same,Luciferase Activity (fold increase),[1]; [17],2.5 fold
same,Luciferase Activity,[1]; [18],0.081
same,Luciferase Activity (fold increase),[1]; [18],3.5 fold
same,Luciferase Activity,[1]; [19],0.079
same,Luciferase Activity (fold increase),[1]; [19],3.4 fold
same,Luciferase Activity,"[1]; TN-16 5 μM, 2T3 cell clone 17",0.111
same,Luciferase Activity (fold increase),"[1]; TN-16 5 μM, 2T3 cell clone 17",4.8 fold
same,Luciferase Activity,"[1]; TN-16 10 μM, 2T3 cell clone 17",0.098
same,Luciferase Activity (fold increase),"[1]; TN-16 10 μM, 2T3 cell clone 17",4.2 fold
B1,Effect on BMP-2-induced reporter activity,"[3]; 500 ng/ml of noggin, 100 ng/ml of BMP-2",completely blocked
same,Inhibition of BMP-2-induced luciferase activity,[3]; dose-response,inhibit BMP-2-induced luciferase activity in a dose-dependent manner
B2,Luciferase Activity,"[1]; PTH 0.195 ng/ml, 2T3 C-17 cells",0.05
same,Luciferase Activity,"[1]; PTH 0.39 ng/ml, 2T3 C-17 cells",0.053
same,Luciferase Activity,"[1]; PTH 0.78 ng/ml, 2T3 C-17 cells",0.047
same,Luciferase Activity,"[1]; PTH 1.56 ng/ml, 2T3 C-17 cells",0.05
same,Luciferase Activity,"[1]; PTH 3.125 ng/ml, 2T3 C-17 cells",0.05
same,Luciferase Activity,"[1]; PTH 6.25 ng/ml, 2T3 C-17 cells",0.048
same,Luciferase Activity,"[1]; PTH 12.5 ng/ml, 2T3 C-17 cells",0.051
same,Luciferase Activity,"[1]; PTH 25 ng/ml, 2T3 C-17 cells",0.053
same,Luciferase Activity,"[1]; PTH 50 ng/ml, 2T3 C-17 cells",0.053
same,Luciferase Activity,"[1]; PTH 100 ng/ml, 2T3 C-17 cells",0.055
